Results reported in ChEMBL document CHEMBL5550185, “Targeting hTERT Promoter G-Quadruplex DNA Structures with Small-Molecule Ligand to Downregulate hTERT Expression for Triple-Negative Breast Cancer Therapy” (J Med Chem, 2024).
Calls of active or inactive are those of the source. No cut-off for these calls is given here.

Tests used:
[1] = tested on: MDA-MB-231; experiment: Induction of DNA damage in human MDA-MB-231 cells assessed as upregulation of 53BP1 protein expression measured after 48 hrs by Western blot analysis; format: functional, cell-based; settings: dose 0-1.5 µM
[2] = tested on: MDA-MB-231; experiment: Activation of apoptosis in human MDA-MB-231 cells assessed as downregulation of Bcl-2 protein expression measured after 48 hrs by Western blot analysis; format: functional, cell-based; settings: dose 0-1.5 µM
[3] = tested on: MDA-MB-231; experiment: Induction of mitochondrial dysfunction in human MDA-MB-231 cells assessed as downregulation of mitochondrial respiratory complex IV-COX II expression incubated for 48 hrs by Western blot analysis; format: functional, cell-based; settings: dose 0-1.5 µM
[4] = Toxicity in female Balb/c nude mouse xenografted with human MDA-MB-231 cells assessed as change in lymphocyte count at 2 to 5 mg/kg, iv administered via tail vein every 2 days for 16 days; format: organism-based; settings: in vivo, 384 h, dose 2-5 mg/kg, time 16 day
[5] = tested on: Quadruplex DNA; experiment: Binding affinity to hTERT G4 DNA assessed as change in enthalpy at 400 uM by ITC analysis; format: nucleic-acid assay; settings: Homo sapiens
[6] = tested on: MDA-MB-231; experiment: Antitumor activity against human MDA-MB-231 cells xenografted in iv dosed female Balb/c mouse assessed as nucleolysis in tumor administered via tail vein every 2 days for 16 days by H and E staining based analysis; format: functional, organism-based; settings: dose 2-5 mg/kg, time 16.0 day
[7] = tested on: MDA-MB-231; experiment: Induction of mitochondrial dysfunction in human MDA-MB-231 cells assessed as downregulation of mitochondrial respiratory complex I-NDUFB8 expression incubated for 48 hrs by Western blot analysis; format: functional, cell-based; settings: dose 0-1.5 µM
[8] = tested on: MDA-MB-231; experiment: Inhibition of TRF2 protein expression in human MDA-MB-231 cells measured after 48 hrs by Western blot analysis; format: functional, cell-based; settings: dose 0-1.5 µM
[9] = tested on: MDA-MB-231; experiment: Induction of mitochondrial dysfunction in human MDA-MB-231 cells assessed as mitochondrial membrane potential impairment at 0 to 1.5 uM incubated for 48 hrs by Hoechst33342 staining based microscopic analysis; format: functional, cell-based; settings: dose 0-1.5 µM
[10] = Toxicity in female Balb/c nude mouse xenografted with human MDA-MB-231 cells assessed as change in RBC count at 2 to 5 mg/kg, iv administered via tail vein every 2 days for 16 days; format: organism-based, Erythrocyte; settings: in vivo, 384 h, dose 2-5 mg/kg, time 16 day
[11] = tested on: MDA-MB-231; experiment: Induction of cell cycle arrest in human MDA-MB-231 cells assessed as accumulation of cells at S phase at 0.5 to 1.5 uM measured after 48 hrs by 7-aminoactinomycin D/RNase staining based flow cytometry analysis (reference value: 23.4%); format: functional; settings: dose 0.5-1.5 µM
[12] = tested on: MDA-MB-231; experiment: Downregulation of ND4 gene expression in human MDA-MB-231 cells at 1 uM measured after 48 hrs by RNA-seq analysis; format: functional, cell-based
[13] = Upregulation of FTL gene expression in human MDA-MB-231 cells assessed as fold change at 1 uM measured after 48 hrs by RNA-seq analysis relative to control; format: functional
[14] = Upregulation of CDKN1A gene expression in human MDA-MB-231 cells assessed as fold change at 1 uM measured after 48 hrs by RNA-seq analysis relative to control; format: functional
[15] = Toxicity in female Balb/c nude mouse xenografted with human MDA-MB-231 cells assessed as signs of ulcer at 2 to 5 mg/kg, iv administered via tail vein every 2 days for 16 days; format: organism-based; settings: in vivo, 384 h, dose 2-5 mg/kg, time 16 day
[16] = Binding affinity to antisense i-hTERT DNA assessed as dissociation constant by ITC analysis; set-up: species or system Homo sapiens
[17] = Upregulation of HLA-E gene expression in human MDA-MB-231 cells assessed as fold change at 1 uM measured after 48 hrs by RNA-seq analysis relative to control; format: functional
[18] = species: Homo sapiens; experiment: Binding affinity to antisense i-hTERT DNA assessed as change in enthalpy at 400 uM by ITC analysis
[19] = Toxicity in female Balb/c nude mouse xenografted with human MDA-MB-231 cells assessed as change in ALT level at 2 to 5 mg/kg, iv administered via tail vein every 2 days for 16 days; format: organism-based; settings: in vivo, 384 h, dose 2-5 mg/kg, time 16 day
[20] = Toxicity in female Balb/c nude mouse xenografted with human MDA-MB-231 cells assessed as pathological changes in spleen at 2 to 5 mg/kg, iv administered via tail vein every 2 days for 16 days by H and E staining based analysis; format: organism-based; settings: in vivo, 384 h, dose 2-5 mg/kg, time 16 day
[21] = Toxicity in female Balb/c nude mouse xenografted with human MDA-MB-231 cells assessed as change in blood urea nitrogen level at 2 to 5 mg/kg, iv administered via tail vein every 2 days for 16 days; format: organism-based; settings: in vivo, 384 h, dose 2-5 mg/kg, time 16 day
[22] = tested on: MDA-MB-231; experiment: Downregulation of ND1 gene expression in human MDA-MB-231 cells at 1 uM measured after 48 hrs by RNA-seq analysis; format: functional, cell-based
[23] = tested on: MDA-MB-231; experiment: Downregulation of ND6 gene expression in human MDA-MB-231 cells at 1 uM measured after 48 hrs by RNA-seq analysis; format: functional, cell-based
[24] = tested on: MDA-MB-231; experiment: Induction of mitochondrial dysfunction in human MDA-MB-231 cells assessed as downregulation of mitochondrial respiratory complex III-UQCRC2 expression incubated for 48 hrs by Western blot analysis; format: functional, cell-based; settings: dose 0-1.5 µM
[25] = target: Quadruplex DNA; experiment: Binding affinity to Bcl-2 G4 DNA (unknown origin) assessed as dissociation constant by ITC analysis; format: nucleic-acid assay
[26] = Upregulation of HLA-F gene expression in human MDA-MB-231 cells assessed as fold change at 1 uM measured after 48 hrs by RNA-seq analysis relative to control; format: functional
[27] = Upregulation of HLA-B gene expression in human MDA-MB-231 cells assessed as fold change at 1 uM measured after 48 hrs by RNA-seq analysis relative to control; format: functional
[28] = Toxicity in female Balb/c nude mouse xenografted with human MDA-MB-231 cells assessed as change in mean corpuscular hemoglobin concentration at 2 to 5 mg/kg, iv administered via tail vein every 2 days for 16 days; format: organism-based; settings: in vivo, 384 h, dose 2-5 mg/kg, time 16 day
[29] = Toxicity in female Balb/c nude mouse xenografted with human MDA-MB-231 cells assessed as pathological changes in liver at 2 to 5 mg/kg, iv administered via tail vein every 2 days for 16 days by H and E staining based analysis; format: organism-based; settings: in vivo, 384 h, dose 2-5 mg/kg, time 16 day
[30] = tested on: Quadruplex DNA; experiment: Binding affinity to Telo21 G4 DNA (unknown origin) assessed as thermal stability by measuring change in melting temperature at 400 uM […]; format: nucleic-acid assay
[31] = tested on: MDA-MB-231; experiment: Induction of autophagy in human MDA-MB-231 cells assessed as upregulation of LC3-II protein expression at 0 to 1.5 uM measured after 48 hrs by Western blot analysis; format: functional, cell-based; settings: dose 0-1.5 µM
[32] = tested on: MDA-MB-231; experiment: Activation of apoptosis in human MDA-MB-231 cells assessed as upregulation of BAX protein expression measured after 48 hrs by Western blot analysis; format: functional, cell-based; settings: dose 0-1.5 µM
[33] = tested on: Quadruplex DNA; experiment: Binding affinity to CKIT-2 G4 DNA (unknown origin) assessed as change in gibbs free energy at 400 uM by ITC analysis; format: nucleic-acid assay
[34] = Toxicity in female Balb/c nude mouse xenografted with human MDA-MB-231 cells assessed as change in hemoglobin concentration at 2 to 5 mg/kg, iv administered via tail vein every 2 days for 16 days; format: organism-based; settings: in vivo, 384 h, dose 2-5 mg/kg, time 16 day
[35] = tested on: MDA-MB-231; experiment: Downregulation of ND2 gene expression in human MDA-MB-231 cells at 1 uM measured after 48 hrs by RNA-seq analysis; format: functional, cell-based
[36] = target: Quadruplex DNA; experiment: Binding affinity to c-MYC Pu27 G4 DNA (unknown origin) assessed as dissociation constant by ITC analysis; format: nucleic-acid assay

C[n+]1c(/C=C/c2c[nH]c3ccccc23)cc(/C=C2\Sc3ccccc3N2CCCN2CCC(C(F)(F)F)CC2)c2ccccc21.[I-]
Activity [1]: Dose-Dependent Effect | Activity [2]: Dose-Dependent Effect | Activity [3]: Dose-Dependent Effect | Activity [4]: Non-Toxic | deltaH [5]: -2.72 kcal/mol | Activity [6]: Dose-Dependent Effect | Activity [7]: Dose-Dependent Effect | inhibition [8]: Dose-Dependent Effect | Activity [9]: Active | Activity [10]: Non-Toxic | Activity [11]: 4.6% | Activity [12]: Active | fold change (FC) [13]: >2 | fold change (FC) [14]: >2 | Activity [15]: Non-Toxic | Kd [16]: 2790 nM | fold change (FC) [17]: >2 | deltaH [18]: -1.2 kcal/mol | Activity [19]: Non-Toxic | Activity [20]: Non-Toxic | Activity [21]: Non-Toxic | Activity [22]: Active | Activity [23]: Active | Activity [24]: Dose-Dependent Effect | Kd [25]: 3.61 µM | fold change (FC) [26]: >2 | fold change (FC) [27]: >2 | Activity [28]: Non-Toxic | Activity [29]: Non-Toxic | ΔTm [30]: 8.85 °C | Activity [31]: Active | Activity [32]: Dose-Dependent Effect | deltaG [33]: -7.05 kcal/mol | Activity [34]: Non-Toxic | Activity [35]: Active | Kd [36]: 14.7 µM
